For 1 molecule, IC50 results are on record in paper doi:10.1101/2024.06.25.600616, “Presynaptic GABAA receptors control integration of nicotinic input onto dopaminergic axons in the striatum” (bioRxiv, 2024).

This assay concerns T1, nicotinic acetylcholine receptors (nAChRs) on dopaminergic axons (likely beta2 subunit-containing).
T1 construct: gene Chrnb2; native receptor on dopaminergic axons; with α4 and/or α6 nAChR subunits (native heteromer, not resolved)
The assay can be described thus: whole-cell axonal recording of ACh-puff depolarizations; IC50 from jGCaMP8s nicotinic component in striatal slices. Also noted: species or system Mus musculus.

Take `C=C(C)[C@@H]1[C@H]2OC(=O)[C@@H]1[C@]1(O)C[C@H]3OC34C(=O)O[C@H]2[C@@]41C.CC(C)(O)[C@@H]1[C@H]2OC(=O)[C@@H]1[C@]1(O)C[C@H]3OC34C(=O)O[C@H]2[C@@]41C` (stereo partly shown) [picrotoxin]: it took 108 µM to reach half-maximal inhibition (IC50).

As usually defined, the IC50 is the midpoint of a concentration-inhibition curve. The low end stands for inhibition by little substance, the high end for a need for much substance.
